The values below come from PubChem BioAssay AID330 (DTP/NCI, 2004).

The assay concerns P388 leukemia ip, CD2F1 mice, survival T/C. Put plainly: NCI In Vivo Anticancer Drug Screen. Data for tumor model P388 Leukemia (intraperitoneal) in CD2F1 (CDF1) mice. Particulars: endpoint: median survival time, higher = longer survival. A digest of the protocol: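 Mice carrying the transplanted tumor received test compound or vehicle. Survival was recorded in each group, and the value is the treated-group measurement divided by that of the vehicle-treated control group.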

Where [1] appears, read: dose: 50.0 mg/kg/injection, schedule: Q01DX005 (ip), vehicle: saline with Tween-80.
Setting [2] is: dose: 100.0 mg/kg/injection, schedule: Q01DX005 (ip), vehicle: saline with Tween-80.
[3] abbreviates: dose: 200.0 mg/kg/injection, schedule: Q01DX005 (ip), vehicle: saline with Tween-80.
Setting [4] is: dose: 50.0 mg/kg/injection, schedule: Q01DX009 (ip), vehicle: saline.
Setting [5] is: dose: 100.0 mg/kg/injection, schedule: Q01DX009 (ip), vehicle: saline.
Setting [6] is: dose: 100.0 mg/kg/injection, schedule: Q01DX001 (ip), vehicle: saline with Tween-80.
Setting [7] is: dose: 200.0 mg/kg/injection, schedule: Q01DX001 (ip), vehicle: saline with Tween-80.
[8] abbreviates: dose: 400.0 mg/kg/injection, schedule: Q01DX001 (ip), vehicle: saline with Tween-80.
The mark [9] stands for this setting: dose: 12.5 mg/kg/injection, schedule: Q01DX009 (ip), vehicle: Klucel (hydroxypropylcellulose) (HPC).
[10] abbreviates: dose: 25.0 mg/kg/injection, schedule: Q01DX009 (ip), vehicle: Klucel (hydroxypropylcellulose) (HPC).
The mark [11] stands for this setting: dose: 25.0 mg/kg/injection, schedule: Q01DX009 (ip), vehicle: other.
Where [12] appears, read: dose: 50.0 mg/kg/injection, schedule: Q01DX009 (ip), vehicle: other.
Setting [13] is: dose: 100.0 mg/kg/injection, schedule: Q01DX009 (ip), vehicle: other.
[14] abbreviates: dose: 200.0 mg/kg/injection, schedule: Q01DX009 (ip), vehicle: other.
The mark [15] stands for this setting: dose: 60.0 mg/kg/injection, schedule: Q01DX005 (ip), vehicle: saline with Tween-80.
Where [16] appears, read: dose: 120.0 mg/kg/injection, schedule: Q01DX005 (ip), vehicle: saline with Tween-80.
[17] abbreviates: dose: 240.0 mg/kg/injection, schedule: Q01DX005 (ip), vehicle: saline with Tween-80.

“And” between values parts separate entries of the source, which are not always exact repeats. Equal entries are not always repeated. Inconclusive results and toxic doses are left out.

Regarding `O=C1C2C3C=CC(O3)C2C(=O)N1CCN1CCCCC1` (stereo not given), the T/C reads like this: (dose: 50.0 mg/kg/injection, schedule: Q01DX005 (ip), vehicle: other) 97 % of control; (dose: 100.0 mg/kg/injection, schedule: Q01DX005 (ip), vehicle: other) 91 % of control.

Consider `COC(=O)C12CCC(C(=O)OC)(CC1)n1c(=O)n(-c3ccccc3)c(=O)n12`, for which the T/C runs as follows: under setting [1], 102 % of control; under setting [2], 102 % of control; under setting [3], 102 % of control.

For `NCCN(Cc1ccccc1)C1CC1`, the T/C by setting is: under setting [4], 98 % of control; under setting [5], 91 % of control.

With `CC(/C=N\Nc1ccc(C(=O)O)cc1)=N/NC(=O)CC#N`, the T/C reads like this: under setting [4], 88 % of control; under setting [5], 86 % of control; (dose: 200.0 mg/kg/injection, schedule: Q01DX009 (ip), vehicle: saline) 88 % of control.

Consider `O=C1C(CN2CCCC2)C(O)=C(c2ccccc2)N1c1ccccc1` (stereo not given), for which the T/C under setting [6] was 102 % of control, the T/C under setting [7] is 92 % of control and the T/C under setting [8] was 92 % of control.

In the case of `CCSc1nc2ccc(N=Cc3ccccc3O)cc2s1`, the T/C by setting is: under setting [9], 99 % of control and 88 % of control; under setting [10], 101 % of control and 93 % of control; (dose: 100.0 mg/kg/injection, schedule: Q01DX009 (ip), vehicle: Klucel (hydroxypropylcellulose) (HPC)) 106 % of control and 218 % of control and 91 % of control.

With `CCOC(=O)N1CCc2cc(OC)c(OC)cc2/C1=C/c1cc(Br)sc1Br`, the T/C was 102 % of control (dose: 100.0 mg/kg/injection, schedule: Q04DX002 (ip), vehicle: Klucel (hydroxypropylcellulose) (HPC)); 103 % of control (dose: 200.0 mg/kg/injection, schedule: Q04DX002 (ip), vehicle: Klucel (hydroxypropylcellulose) (HPC)); 105 % of control (dose: 400.0 mg/kg/injection, schedule: Q04DX002 (ip), vehicle: Klucel (hydroxypropylcellulose) (HPC)).

For the compound `O=C(NC(CCS(=O)(=O)F)C(=O)OCc1ccccc1)OCc1ccccc1` (stereo not given), the T/C is 102 % of control (dose: 12.5 mg/kg/injection, schedule: Q01DX009 (ip), vehicle: other); 97 % of control under setting [11]; 100 % of control under setting [12]; 102 % of control under setting [13]; 105 % of control under setting [14].

Regarding `O=c1oc2c3c4c(cc2c2c1CCC2)CCCN4CCC3`, the T/C by setting is: (dose: 100.0 mg/kg/injection, schedule: Q04DX003 (ip), vehicle: Klucel (hydroxypropylcellulose) (HPC)) 102 % of control; (dose: 200.0 mg/kg/injection, schedule: Q04DX003 (ip), vehicle: Klucel (hydroxypropylcellulose) (HPC)) 101 % of control; (dose: 400.0 mg/kg/injection, schedule: Q04DX003 (ip), vehicle: Klucel (hydroxypropylcellulose) (HPC)) 100 % of control.

As for `O=C1c2cccnc2C(=O)N1Cc1ccccc1`, the T/C (dose: 100.0 mg/kg/injection, schedule: Q04DX003 (ip), vehicle: saline with Tween-80) was 95 % of control; the T/C (dose: 200.0 mg/kg/injection, schedule: Q04DX003 (ip), vehicle: saline with Tween-80) was 95 % of control; the T/C (dose: 400.0 mg/kg/injection, schedule: Q04DX003 (ip), vehicle: saline with Tween-80) was 90 % of control.

As to `COc1cccc2c1C(=O)c1c(O)c3c(c(O)c1C2=O)C[C@@](O)(C(C)=O)C[C@@H]3OC1CC(N2CCC(OC)CC2)C(O)C(C)O1` (stereo not given in full), the T/C was 114 % of control (dose: 0.39 mg/kg/injection, schedule: Q04DX003 (ip), vehicle: water); 104 % of control (dose: 0.78 mg/kg/injection, schedule: Q04DX003 (ip), vehicle: water); 111 % of control and 114 % of control (dose: 1.56 mg/kg/injection, schedule: Q04DX003 (ip), vehicle: water); 181 % of control and 217 % of control (dose: 6.25 mg/kg/injection, schedule: Q04DX003 (ip), vehicle: water); 118 % of control (dose: 12.5 mg/kg/injection, schedule: Q04DX003 (ip), vehicle: water).

Take `O=c1c2cc3c(cc2c2cccc4c2n1CC4)OCO3`: the T/C was 96 % of control under setting [11]; 100 % of control under setting [12]; 86 % of control under setting [13]; 89 % of control under setting [14]; 91 % of control (dose: 400.0 mg/kg/injection, schedule: Q01DX009 (ip), vehicle: other).

As to `CC(=O)O[C@@H]1C[C@@]2(C)C(CC(=O)[C@@H](C)[C@@H]2CC(=O)c2ccoc2)[C@@H](CO)[C@@H]1O` (stereo not given in full), the T/C (dose: 12.5 mg/kg/injection, schedule: Q01DX005 (ip), vehicle: Klucel (hydroxypropylcellulose) (HPC)) was 103 % of control; the T/C (dose: 25.0 mg/kg/injection, schedule: Q01DX005 (ip), vehicle: Klucel (hydroxypropylcellulose) (HPC)) is 100 % of control; the T/C (dose: 50.0 mg/kg/injection, schedule: Q01DX005 (ip), vehicle: Klucel (hydroxypropylcellulose) (HPC)) is 109 % of control; the T/C (dose: 100.0 mg/kg/injection, schedule: Q01DX005 (ip), vehicle: Klucel (hydroxypropylcellulose) (HPC)) was 106 % of control; the T/C (dose: 100.0 mg/kg/injection, schedule: Q01DX005 (ip), vehicle: Klucel + Tween-80) is 107 % of control; the T/C (dose: 200.0 mg/kg/injection, schedule: Q01DX005 (ip), vehicle: Klucel + Tween-80) is 107 % of control. The T/C (dose: 400.0 mg/kg/injection, schedule: Q01DX005 (ip), vehicle: Klucel + Tween-80) was 101 % of control.

Take `O=[N+]([O-])c1ccc2c(ccc3sc4ccccc4[n+]32)c1`: the T/C runs as follows: (dose: 6.25 mg/kg/injection, schedule: Q01DX005 (ip), vehicle: saline with Tween-80) 95 % of control; (dose: 12.5 mg/kg/injection, schedule: Q01DX005 (ip), vehicle: saline with Tween-80) 108 % of control; (dose: 25.0 mg/kg/injection, schedule: Q01DX005 (ip), vehicle: saline with Tween-80) 111 % of control; under setting [1], 112 % of control.

For `Cc1nc2c(o1)CCCC2`, the T/C under setting [15] is 95 % of control, the T/C under setting [16] was 90 % of control and the T/C under setting [17] was 99 % of control.

Turning to `C/C(=N/NC(N)=S)c1cn[nH]c1C`, the T/C reads like this: (dose: 15.0 mg/kg/injection, schedule: Q01DX005 (ip), vehicle: Klucel (hydroxypropylcellulose) (HPC)) 102 % of control; (dose: 30.0 mg/kg/injection, schedule: Q01DX005 (ip), vehicle: Klucel (hydroxypropylcellulose) (HPC)) 102 % of control; (dose: 60.0 mg/kg/injection, schedule: Q01DX005 (ip), vehicle: Klucel (hydroxypropylcellulose) (HPC)) 114 % of control.

With `C=CCSC(=S)Nc1nc2ccc([N+](=O)[O-])cc2s1`, the T/C runs as follows: (dose: 6.25 mg/kg/injection, schedule: Q01DX009 (ip), vehicle: Klucel (hydroxypropylcellulose) (HPC)) 106 % of control; under setting [9], 109 % of control; under setting [10], 103 % of control.

With `CC(C(=O)NN)C(C)(C)C` (stereo not given), the T/C was 96 % of control under setting [6], 99 % of control under setting [7] and 99 % of control under setting [8].

As to `COC(=O)c1cccc2c[n+]3c(cc12)-c1[nH]c2cc(OC)ccc2c1CC3`, the T/C under setting [1] is 100 % of control, the T/C under setting [2] is 99 % of control and the T/C under setting [3] was 108 % of control.

With `CCN=C(c1ccc(NC(=O)c2ccc(C(=O)Nc3ccc(C(=NCC)N(CC)CC)cc3)cc2)cc1)N(CC)CC`, the T/C reads like this: (dose: 0.39 mg/kg/injection, schedule: Q01DX005 (ip), vehicle: Klucel (hydroxypropylcellulose) (HPC)) 102 % of control; (dose: 0.78 mg/kg/injection, schedule: Q01DX005 (ip), vehicle: Klucel (hydroxypropylcellulose) (HPC)) 100 % of control; (dose: 1.56 mg/kg/injection, schedule: Q01DX005 (ip), vehicle: Klucel (hydroxypropylcellulose) (HPC)) 101 % of control.

Turning to `CCOC(=O)C1=C(C)N(C)C(C)=C(C(=O)OCC)C1`, the T/C is, setting by setting: under setting [15], 108 % of control; under setting [16], 100 % of control; under setting [17], 101 % of control.

`COC(=O)C1=C(OC(C)=O)c2ccccc2CS1`: the T/C was 98 % of control (dose: 50.0 mg/kg/injection, schedule: Q01DX001 (ip), vehicle: Klucel (hydroxypropylcellulose) (HPC)); 92 % of control (dose: 100.0 mg/kg/injection, schedule: Q01DX001 (ip), vehicle: Klucel (hydroxypropylcellulose) (HPC)); 96 % of control (dose: 200.0 mg/kg/injection, schedule: Q01DX001 (ip), vehicle: Klucel (hydroxypropylcellulose) (HPC)).
